Reference: EP4562004B1, “NOVEL 7-SUBSTITUTED INDOLE SULFONAMIDE DERIVATIVES” (F. Hoffmann-La Roche AG, priority 2022, dated 2024)

Molecular target: human GPR17 short isoform (Homo sapiens, UniProt Q13304)
Test: GPR17 cAMP assay (antagonist mode, TR-FRET cAMP detection)
Assay type: cell-based
Conditions: CHO-K1 cells stably expressing human GPR17 short isoform; with EC80 concentration of agonist MDL29,951, IBMX 0.5mM, forskolin 15µM; normalized to reference antagonist; read-out: hGPR17 cAMP IC50
Procedure: CHO-K1 cells stably expressing vector containing untagged human GPR17 short isoform (Roche) were cultured at 37°C / 5% CO2 in DMEM (Dulbecco's Modified Eagle Medium):F-12 (1:1) supplemented with 10% foetal bovine serum and 400 µg/ml Geneticin.
Changes in intracellular cyclic adenosine monophosphate (cAMP) levels were quantified using the Nano-TRF Detection Assay kit (Roche Diagnostics, Cat. No. 05214386001). This assay allows for direct cAMP quantification in a homogeneous solution. cAMP is detected based on time-resolved fluorescence energy transfer (TR-FRET) and competitive binding of ruthenylated cAMP and endogenous cAMP to an anti-cAMP monoclonal antibody labeled with AlexaFluor-700. The Ruthenium complex serves as the FRET donor and transfers energy to AlexaFluor-700. The FRET signal is inversely proportional to the cAMP concentration.
CHO-GPR17S cells were detached with Accutase and resuspended in assay buffer consisting of Hank's Balanced Salt Solution (HBSS), 10mM HEPES (4-(2-hydroxyethyl) piperazine-1-ethanesulfonic acid solution) and 0.1% bovine serum albumin (pH 7.4). The cells were seeded in black 384-well plates (Corning) at a density of 10'000 cells / 20µl assay buffer until the addition of compounds.
Test antagonist compounds were serially diluted in dimethyl sulfoxide (DMSO) and spotted in 384-well plates. The compounds were then diluted in HBSS buffer supplemented with an EC80 concentration of MDL29,951 (3-(2-Carboxy-4,6-dichloroindol-3-yl)propionic acid) (GPR17 agonist) plus 3-Isobutyl-1-methylxanthine (IBMX) (0.5mM final concentration) and added to the cells at room temperature. Forskolin (15µM final concentration) was added 5 minutes after the test compounds and the cells were incubated at room temperature for 30 minutes. The assay was stopped by adding cAMP detection mix (containing detergents for cell lysis) for 90 minutes at room temperature.
Cellular cAMP was measured using a Paradigm reader (Molecular Devices). The raw data was used to calculate the FRET signal based on the assay's P-factor as per cAMP kit instructions. The data was normalized to the maximal activity of a reference antagonist and dose response curves were fitted to the percent activity of the test compounds using a sigmoidal dose response model (Genedata Screener).
Results in the hGPR17 cAMP assay are provided for compounds of formula I in Table 1 Table 1: […]

human GPR17 short isoform, sequence (Q13304 29-367): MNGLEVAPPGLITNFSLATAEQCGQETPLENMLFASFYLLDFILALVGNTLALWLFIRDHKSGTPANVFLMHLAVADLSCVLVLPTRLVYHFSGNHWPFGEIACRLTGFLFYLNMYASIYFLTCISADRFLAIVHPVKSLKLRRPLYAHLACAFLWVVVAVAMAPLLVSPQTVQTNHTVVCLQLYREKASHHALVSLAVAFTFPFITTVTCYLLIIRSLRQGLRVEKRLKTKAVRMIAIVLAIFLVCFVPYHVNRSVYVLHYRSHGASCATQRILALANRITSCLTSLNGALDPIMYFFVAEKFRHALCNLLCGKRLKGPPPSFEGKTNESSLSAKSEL

Compound | IC50 [nM]
COc1nc(NS(=O)(=O)c2c[nH]c3c(-n4ccc(C)n4)cccc23)nc(OC)c1CC(F)F [Example 1, N-[5-(2,2-difluoroethyl)-4,6-dimethoxy-pyrimidin-2-yl]-7-(3-methylpyrazol-1-yl)-1H-indole-3-sulfonamide] | 68
COc1nc(NS(=O)(=O)c2c[nH]c3c(-n4nc(C)cc4C)cccc23)nc(OC)c1CC(F)F [Example 2, N-[5-(2,2-difluoroethyl)-4,6-dimethoxy-pyrimidin-2-yl]-7-(3,5-dimethylpyrazol-1-yl)-1H-indole-3-sulfonamide] | 32
COc1nc(NS(=O)(=O)c2c[nH]c3c(-n4ccnc4)cccc23)nc(OC)c1CC(F)F [Example 3, N-[5-(2,2-difluoroethyl)-4,6-dimethoxy-pyrimidin-2-yl]-7-imidazol-1-yl-1H-indole-3-sulfonamide] | 300
COc1nc(NS(=O)(=O)c2c[nH]c3c(-n4cccn4)c(Cl)ccc23)nc(OC)c1CC(F)F [Example 4, 6-chloro-N-[5-(2,2-difluoroethyl)-4,6-dimethoxy-pyrimidin-2-yl]-7-pyrazol-1-yl-1H-indole-3-sulfonamide] | 22
COc1nc(NS(=O)(=O)c2c[nH]c3c(-n4ccnc4C)cccc23)nc(OC)c1CC(F)F [Example 5, N-[5-(2,2-difluoroethyl)-4,6-dimethoxy-pyrimidin-2-yl]-7-(2-methylimidazol-1-yl)-1H-indole-3-sulfonamide] | 48
COc1nc(NS(=O)(=O)c2c[nH]c3c(-n4ccnc4)c(Cl)ccc23)nc(OC)c1OCC(F)F [Example 6, 6-chloro-N-[5-(2,2-difluoroethoxy)-4,6-dimethoxy-pyrimidin-2-yl]-7-imidazol-1-yl-1H-indole-3-sulfonamide] | 50
COc1nc(NS(=O)(=O)c2c[nH]c3c(-n4nccn4)c(Cl)ccc23)nc(OC)c1CC(F)F [Example 7, 6-chloro-N-[5-(2,2-difluoroethyl)-4,6-dimethoxy-pyrimidin-2-yl]-7-(triazol-2-yl)-1H-indole-3-sulfonamide] | 21
COc1nc(NS(=O)(=O)c2c[nH]c3c(-n4ccnc4)c(Cl)ccc23)ncc1CC(F)F [Example 8, 6-chloro-N-[5-(2,2-difluoroethyl)-4-methoxy-pyrimidin-2-yl]-7-imidazol-1-yl-1H-indole-3-sulfonamide] | 248
COc1nc(NS(=O)(=O)c2c[nH]c3c(-n4nccn4)c(Cl)ccc23)nc(OC)c1OCC(F)F [Example 9, 6-chloro-N-[5-(2,2-difluoroethoxy)-4,6-dimethoxy-pyrimidin-2-yl]-7-(triazol-2-yl)-1H-indole-3-sulfonamide] | 32
COc1nc(NS(=O)(=O)c2c[nH]c3c(-n4cnnc4)c(Cl)ccc23)nc(OC)c1CC(F)F [Example 10, 6-chloro-N-[5-(2,2-difluoroethyl)-4,6-dimethoxy-pyrimidin-2-yl]-7-(1,2,4-triazol-4-yl)-1H-indole-3-sulfonamide] | 100
COc1nc(NS(=O)(=O)c2c[nH]c3c(-n4nccn4)c(C(F)F)ccc23)nc(OC)c1OCC(F)F [Example 11, N-[5-(2,2-difluoroethoxy)-4,6-dimethoxy-pyrimidin-2-yl]-6-(difluoromethyl)-7-(triazol-2-yl)-1H-indole-3-sulfonamide] | 74
COc1nc(NS(=O)(=O)c2c[nH]c3c(-n4nccn4)c(Cl)ccc23)ncc1OCCF [Example 12, 6-chloro-N-[5-(2-fluoroethoxy)-4-methoxy-pyrimidin-2-yl]-7-(triazol-2-yl)-1H-indole-3-sulfonamide] | 52
COc1nc(NS(=O)(=O)c2c[nH]c3c(-n4nccn4)cccc23)nc(OC)c1CC(F)F [Example 13, N-[5-(2,2-difluoroethyl)-4,6-dimethoxy-pyrimidin-2-yl]-7-(triazol-2-yl)-1H-indole-3-sulfonamide] | 203
COc1nc(NS(=O)(=O)c2c[nH]c3c(-n4nccn4)c(Cl)ccc23)nc(OC)c1OCCF [Example 14, 6-chloro-N-[5-(2-fluoroethoxy)-4,6-dimethoxy-pyrimidin-2-yl]-7-(triazol-2-yl)-1H-indole-3-sulfonamide] | 28
COc1nc(NS(=O)(=O)c2c[nH]c3c(-n4nccn4)c(Cl)ccc23)nc(OC)c1OC(F)F [Example 15, 6-chloro-N-[5-(difluoromethoxy)-4,6-dimethoxy-pyrimidin-2-yl]-7-(triazol-2-yl)-1H-indole-3-sulfonamide] | 25
COc1nc(NS(=O)(=O)c2c[nH]c3c(-n4nccn4)c(Cl)ccc23)nc(OC)c1CC(F)CF (centres unmarked) [Example 16, 6-chloro-N-[5-(2,3-difluoropropyl)-4,6-dimethoxy-pyrimidin-2-yl]-7-(triazol-2-yl)-1H-indole-3-sulfonamide] | 24
COc1nc(NS(=O)(=O)c2c[nH]c3c(-n4nccn4)c(Cl)ccc23)nc(OC)c1CCC(F)F [Example 17, 6-chloro-N-[5-(3,3-difluoropropyl)-4,6-dimethoxy-pyrimidin-2-yl]-7-(triazol-2-yl)-1H-indole-3-sulfonamide] | 24
COc1nc(NS(=O)(=O)c2c[nH]c3c(-n4nccn4)c(Cl)ccc23)nc(OC)c1C1CC1C#N (centres unmarked) [Example 18, 6-chloro-N-[5-(2-cyanocyclopropyl)-4,6-dimethoxy-pyrimidin-2-yl]-7-(triazol-2-yl)-1H-indole-3-sulfonamide] | 25
COc1nc(NS(=O)(=O)c2c[nH]c3c(-n4nccn4)cccc23)nc(OC)c1OCCF [Example 19, N-[5-(2-fluoroethoxy)-4,6-dimethoxy-pyrimidin-2-yl]-7-(triazol-2-yl)-1H-indole-3-sulfonamide] | 316
COc1nc(NS(=O)(=O)c2c[nH]c3c(-n4nccn4)cccc23)nc(OC)c1OCC(F)F [Example 20, N-[5-(2,2-difluoroethoxy)-4,6-dimethoxy-pyrimidin-2-yl]-7-(triazol-2-yl)-1H-indole-3-sulfonamide] | 447
COc1nc(NS(=O)(=O)c2c[nH]c3c(-n4nccn4)cccc23)nc(OC)c1C1CC1C#N (centres unmarked) [Example 21, N-[5-(2-cyanocyclopropyl)-4,6-dimethoxy-pyrimidin-2-yl]-7-(triazol-2-yl)-1H-indole-3-sulfonamide] | 195
COc1nc(NS(=O)(=O)c2c[nH]c3c(-n4nccn4)c(C)ccc23)nc(OC)c1CC(F)F [Example 22, N-[5-(2,2-difluoroethyl)-4,6-dimethoxy-pyrimidin-2-yl]-6-methyl-7-(triazol-2-yl)-1H-indole-3-sulfonamide] | 21
COc1nc(NS(=O)(=O)c2c[nH]c3c(-n4nccn4)c(C)ccc23)nc(OC)c1OCCF [Example 23, N-[5-(2-fluoroethoxy)-4,6-dimethoxy-pyrimidin-2-yl]-6-methyl-7-(triazol-2-yl)-1H-indole-3-sulfonamide] | 35
COc1nc(NS(=O)(=O)c2c[nH]c3c(-n4nccn4)c(C)ccc23)nc(OC)c1OC(F)F [Example 24, N-[5-(difluoromethoxy)-4,6-dimethoxy-pyrimidin-2-yl]-6-methyl-7-(triazol-2-yl)-1H-indole-3-sulfonamide] | 38
COc1nc(NS(=O)(=O)c2c[nH]c3c(-n4nccn4)c(C)ccc23)nc(OC)c1OCC(F)F [Example 25, N-[5-(2,2-difluoroethoxy)-4,6-dimethoxy-pyrimidin-2-yl]-6-methyl-7-(triazol-2-yl)-1H-indole-3-sulfonamide] | 34
COc1nc(NS(=O)(=O)c2c[nH]c3c(-n4nccn4)c(C)ccc23)nc(OC)c1C1CC1C#N (centres unmarked) [Example 26, N-[5-(2-cyanocyclopropyl)-4,6-dimethoxy-pyrimidin-2-yl]-6-methyl-7-(triazol-2-yl)-1H-indole-3-sulfonamide] | 25
COc1nc(NS(=O)(=O)c2c[nH]c3c(-n4nccn4)c(Br)ccc23)nc(OC)c1CC(F)F [Example 27, 6-bromo-N-[5-(2,2-difluoroethyl)-4,6-dimethoxy-pyrimidin-2-yl]-7-(triazol-2-yl)-1H-indole-3-sulfonamide] | 19
COc1nc(NS(=O)(=O)c2c[nH]c3c(-n4nccn4)c(Br)ccc23)nc(OC)c1OCCF [Example 28, 6-bromo-N-[5-(2-fluoroethoxy)-4,6-dimethoxy-pyrimidin-2-yl]-7-(triazol-2-yl)-1H-indole-3-sulfonamide] | 27
COc1nc(NS(=O)(=O)c2c[nH]c3c(-n4nccn4)c(Br)ccc23)nc(OC)c1OC(F)F [Example 29, 6-bromo-N-[5-(difluoromethoxy)-4,6-dimethoxy-pyrimidin-2-yl]-7-(triazol-2-yl)-1H-indole-3-sulfonamide] | 22
